For data set [1], the system named is Abutilon theophrasti. Briefly: Post-emergence herbicidal activity against Abutilon theophrasti (velvetleaf) assessed as mortality at 6.3 g a.i/10 a applied 11 days after germination as foliar spray. The format is functional. The note with it: 264 h.
A short description of data set [2]: Pre-emergence phytotoxicity against Gossypium hirsutum (cotton) assessed as mortality at 6.3 g a.i/10 a. The format is organism-based. The note with it: in vivo, 6.3 g a.i/10 a, read-out: Activity.
The subject of data set [3] is Gossypium hirsutum. Put plainly: Pre-emergence phytotoxicity against Gossypium hirsutum (cotton) assessed as mortality at 1.6 g a.i/10 a. Format: organism-based. The following applies: in vivo, other.
Data set [4] relates to Glycine max. Briefly: (§1) Pre-emergence phytotoxicity against Glycine max (soybean) assessed as mortality at 1.6 g a.i/10 a. The format is organism-based. The following applies: in vivo, other.
Data set [5] has as its system Glycine max. Briefly: Pre-emergence phytotoxicity against Glycine max (soybean) assessed as mortality at 6.3 g a.i/10 a. The format is organism-based. The note with it: in vivo, other.
The test system of data set [6] is Zea mays. Briefly: Pre-emergence phytotoxicity against Zea mays (maize) assessed as mortality at 1.6 g a.i/10 a. The following applies: in vivo, other. Format: organism-based.
In data set [7] the test system is Zea mays. Briefly: Pre-emergence phytotoxicity against Zea mays (maize) assessed as mortality at 6.3 g a.i/10 a. The format is organism-based. The following applies: in vivo, other.
Data set [8] is described as follows: (§2) Post-emergence phytotoxicity against Gossypium hirsutum (cotton) assessed as mortality at 1.6 g a.i/10 a applied 11 days after germination as foliar spray. The following applies: in vivo, 1.6 g a.i/10 a. The format is organism-based.
Data set [9] in a line: (§3) Post-emergence phytotoxicity against Gossypium hirsutum (cotton) assessed as mortality at 6.3 g a.i/10 a applied 11 days after germination as foliar spray. The following applies: in vivo, 6.3 g a.i/10 a. Format: organism-based.
The subject of data set [10] is Glycine max. Briefly: Post-emergence phytotoxicity against Glycine max (soybean) assessed as mortality at 6.3 g a.i/10 a applied 11 days after germination as foliar spray. The format is organism-based. The following applies: in vivo, other, 264 h.
For data set [11], the system named is Glycine max. Put plainly: Post-emergence phytotoxicity against Glycine max (soybean) assessed as mortality at 1.6 g a.i/10 a applied 11 days after germination as foliar spray. The format is organism-based. The following applies: in vivo, other, 264 h.
A short description of data set [12]: (§4) Post-emergence phytotoxicity against Zea mays (maize) assessed as mortality at 1.6 g a.i/10 a applied 11 days after germination as foliar spray. The format is organism-based. The following applies: in vivo, 1.6 g a.i/10 a.
The test system of data set [13] is Xanthium strumarium. Put plainly: Pre-emergence herbicidal activity against Xanthium strumarium (cocklebur) assessed as mortality at 1.6 g a.i/10 a. Format: functional.
Data set [14] relates to Ipomoea lacunosa. Briefly: Pre-emergence herbicidal activity against Ipomoea lacunosa assessed as mortality at 1.6 g a.i/10 a. The format is functional.
Data set [15] concerns Gossypium hirsutum. Put plainly: Post-emergence phytotoxicity against Gossypium hirsutum (cotton) assessed as mortality per 10 acre. Format: organism-based. The following applies: in vivo.
Data set [16] deals with Ipomoea lacunosa. Briefly: Post-emergence herbicidal activity against Ipomoea lacunosa assessed as mortality at 1.6 g a.i/10 a applied 11 days after germination as foliar spray. Format: functional. The following applies: 264 h.
The test system of data set [17] is Ipomoea lacunosa. Briefly: Post-emergence herbicidal activity against Ipomoea lacunosa assessed as mortality at 6.3 g a.i/10 a applied 11 days after germination as foliar spray. The format is functional. The following applies: 264 h.
Data set [18] in a line: as §1. Format: organism-based. The note with it: in vivo, 1.6 g a.i/10 a, read-out: Activity.
Data set [19] relates to Gossypium hirsutum. Described as §2. Format: organism-based. The following applies: in vivo, other, 264 h.
In data set [20] the test system is Gossypium hirsutum. The data set is described as §3. Format: organism-based. The following applies: in vivo, other, 264 h.
In data set [21] the test system is Zea mays. The description is as §4. Format: organism-based. The following applies: in vivo, other, 264 h.
The test system of data set [22] is Zea mays. Briefly: Post-emergence phytotoxicity against Zea mays (maize) assessed as mortality at 6.3 g a.i/10 a applied 11 days after germination as foliar spray. The format is organism-based. The following applies: in vivo, other, 264 h.
Data set [23] concerns Echinochloa crus-galli. Put plainly: Post-emergence herbicidal activity against Echinochloa crus-galli (barnyard grass) assessed as mortality at 1.6 g a.i/10 a applied 11 days after germination as foliar spray. The following applies: 264 h. Format: functional.
Data set [24] has as its system Ipomoea lacunosa. Briefly: Pre-emergence herbicidal activity against Ipomoea lacunosa assessed as mortality per 10 acre. Format: functional.
The subject of data set [25] is Persicaria nodosa. Put plainly: Pre-emergence herbicidal activity against Persicaria nodosa assessed as mortality per 10 acre. The format is functional.
Data set [26] relates to Amaranthus retroflexus. Briefly: Pre-emergence herbicidal activity against Amaranthus retroflexus assessed as mortality per 10 acre. Format: functional.
In data set [27] the test system is Echinochloa crus-galli. Put plainly: Pre-emergence herbicidal activity against Echinochloa crus-galli (barnyard grass) assessed as mortality per 10 acre. Format: functional.
Data set [28] concerns Gossypium hirsutum. Briefly: Pre-emergence phytotoxicity against Gossypium hirsutum (cotton) assessed as mortality per 10 acre. The format is organism-based. The note with it: in vivo.
The test system of data set [29] is Xanthium strumarium. Put plainly: Post-emergence herbicidal activity against Xanthium strumarium (cocklebur) assessed as mortality per 10 acre. The format is functional.
Data set [30] relates to Ipomoea lacunosa. Briefly: Post-emergence herbicidal activity against Ipomoea lacunosa assessed as mortality per 10 acre. Format: functional.
The subject of data set [31] is Persicaria nodosa. Briefly: Post-emergence herbicidal activity against Persicaria nodosa assessed as mortality per 10 acre. The format is functional.
The subject of data set [32] is Amaranthus retroflexus. Put plainly: Post-emergence herbicidal activity against Amaranthus retroflexus assessed as mortality per 10 acre. The format is functional.
Data set [33] has as its system Echinochloa crus-galli. Put plainly: Post-emergence herbicidal activity against Echinochloa crus-galli (barnyard grass) assessed as mortality per 10 acre. The format is functional.
In data set [34] the test system is Xanthium strumarium. Put plainly: Pre-emergence herbicidal activity against Xanthium strumarium (cocklebur) assessed as mortality at 6.3 g a.i/10 a. Format: functional.
The subject of data set [35] is Ipomoea lacunosa. Put plainly: Pre-emergence herbicidal activity against Ipomoea lacunosa assessed as mortality at 6.3 g a.i/10 a. The format is functional.
The test system of data set [36] is Xanthium strumarium. Put plainly: Pre-emergence herbicidal activity against Xanthium strumarium (cocklebur) assessed as mortality per 10 acre. Format: functional.

The source made the active and inactive calls. The rule behind the calls is not given here.

Consider `COc1cc(OC)nc(Sc2cccc(I)c2C(=O)O)n1`, for which, in data set [1], the mortality at 63 g/ha is over 90%. In [2], the mortality is under 50%. Moreover, the Activity was under 50% in [3]; “Non-toxic” in [4]; “Toxic” in data set [5]; “Toxic” in [6]; over 90% in data set [7]; “Toxic” in data set [10]. Also, the Activity entry in data set [11] is “Toxic”; in data set [13] it was under 50%; in [14] it was under 50%. The results for the mortality at 264 h in data set [8], in data set [9] and in data set [12] were under 5%, under 5% and over 90%, respectively.
Take `COc1cc(OC)nc(Sc2cccc(C)c2C(=O)O)n1`: the ED20 in data set [15] and in data set [28] was 100 gAi throughout. Moreover, the mortality at 16 g/ha in data set [16] and in [23] was under 5% throughout. Besides, the mortality at 63 g/ha in [17] was under 5%. For the same molecule, the mortality in data set [2] and in [18] was under 50% in each case. For the same molecule, the Activity is recorded as under 50% in [3]; “Non-toxic” in data set [5]; “Toxic” in [6]; “Toxic” in [7]; “Non-toxic” in data set [19]; “Non-toxic” in data set [20]. For the same molecule, the Activity result is reported as “Toxic” in [10]; “Toxic” in data set [11]; “Toxic” in data set [21]; “Toxic” in data set [22]; under 50% in data set [13]; under 50% in [34]. In addition, the Activity in [14] and in [35] was under 50% each time. Moreover, the ED90 in [24] is on record as 50 gAi; in data set [27] it was 100 gAi; in data set [29] it was 25 gAi; in [30] it was 50 gAi; in data set [33] it was 100 gAi; in data set [36] it was 25 gAi. The ED90 entry in data set [25], in [26], in data set [31] and in [32] was “Active” throughout.

The record behind these values is ChEMBL document CHEMBL3046894, “Synthesis and Herbicidal Activity of Pyrimidinyl Salicylic and Thiosalicylic Acids” (J Pestic Sci, 1996).
